Measurements as given in ChEMBL document CHEMBL3885881, “DrugMatrix”.

Species on record: Rattus norvegicus
Assay: DrugMatrix - Regimen: Daily Repeat
Format: toxicity, organism-based, Sprague-Dawley
Design: regimen Daily Repeat, gender Male, age 6-8 weeks
Settings: in vivo, po, route oral GAVAGE, […]; for ABSOLUTE BASOPHIL / ABSOLUTE EOSINOPHIL / ABSOLUTE LYMPHOCYTE / ABSOLUTE MONOCYTE / ABSOLUTE SEGMENTED NEUTROPHIL / BASOPHIL / EOSINOPHIL / ERYTHROCYTE COUNT / HEMATOCRIT / HEMOGLOBIN / LEUKOCYTE COUNT / LYMPHOCYTE / MEAN CORPUSCULAR HEMOGLOBIN / MEAN CORPUSCULAR HEMOGLOBIN CONCENTRATION / MEAN CORPUSCULAR VOLUME / MONOCYTE / NEUTROPHIL / NUCLEATED RED BLOOD CELLS / PLATELET COUNT: tissue Blood; for ALANINE AMINOTRANSFERASE / ALBUMIN / ALKALINE PHOSPHATASE / ASPARTATE AMINOTRANSFERASE / BLOOD UREA NITROGEN / CARBON DIOXIDE / CHLORIDE / CHOLESTEROL / CREATINE PHOSPHOKINASE / CREATININE / GLUCOSE / LACTATE DEHYDROGENASE / LIPASE / PHOSPHORUS / POTASSIUM / SODIUM / TOTAL BILIRUBIN / TOTAL PROTEIN / URIC ACID: tissue Plasma
[1] = 0 mg/kg, 72 h, dose level Control, time 3 day
[2] = 0 mg/kg, 120 h, dose level Control, time 5 day
[3] = 25 mg/kg, 72 h, dose level Low, time 3 day

Compound: CC(C)(C)NC(=O)[C@H]1CC[C@H]2[C@@H]3CC[C@H]4NC(=O)C=C[C@]4(C)[C@H]3CC[C@]12C [FINASTERIDE]
- ABSOLUTE BASOPHIL [1]: 0 CELLS/uL
- ABSOLUTE EOSINOPHIL [1]: 52.33 CELLS/uL
- ABSOLUTE LYMPHOCYTE [1]: 9105.33 CELLS/uL
- ABSOLUTE MONOCYTE [1]: 155.67 CELLS/uL
- ABSOLUTE SEGMENTED NEUTROPHIL [1]: 1020 CELLS/uL
- BASOPHIL [1]: 0%
- EOSINOPHIL [1]: 0.33%
- ERYTHROCYTE COUNT [1]: 5.03 x10E6/uL
- HEMATOCRIT [1]: 31.63%
- HEMOGLOBIN [1]: 12.37 G/DL
- LEUKOCYTE COUNT [1]: 10.33 x10E3/uL
- LYMPHOCYTE [1]: 87%
- MEAN CORPUSCULAR HEMOGLOBIN [1]: 24.57 pg
- MEAN CORPUSCULAR HEMOGLOBIN CONCENTRATION [1]: 39.07 G/DL
- MEAN CORPUSCULAR VOLUME [1]: 62.93 fL
- MONOCYTE [1]: 1.33%
- NEUTROPHIL [1]: 11.33%
- NUCLEATED RED BLOOD CELLS [1]: 0 /100WBC
- PLATELET COUNT [1]: 896 x10E3/uL
- ALANINE AMINOTRANSFERASE [1]: 75.33 u/L
- ALBUMIN [1]: 3.77 G/DL
- ALKALINE PHOSPHATASE [1]: 378.67 u/L
- ASPARTATE AMINOTRANSFERASE [1]: 101.33 u/L
- BLOOD UREA NITROGEN [1]: 11.33 mg/dL
- CARBON DIOXIDE [1]: 25 mmol/L
- CHLORIDE [1]: 99 MEQ/L
- CHOLESTEROL [1]: 66 mg/dL
- CREATINE PHOSPHOKINASE [1]: 277 u/L
- CREATININE [1]: 0.33 mg/dL
- GLUCOSE [1]: 198.33 mg/dL
- LACTATE DEHYDROGENASE [1]: 140.33 u/L
- LIPASE [1]: 11.33 u/L
- PHOSPHORUS [1]: 11.83 mg/dL
- POTASSIUM [1]: 5.37 MEQ/L
- SODIUM [1]: 141.03 MEQ/L
- TOTAL BILIRUBIN [1]: 0.2 mg/dL
- TOTAL PROTEIN [1]: 5.47 G/DL
- URIC ACID [1]: 0.93 mg/dL
- ABSOLUTE BASOPHIL [2]: 0 CELLS/uL
- ABSOLUTE EOSINOPHIL [2]: 0 CELLS/uL
- ABSOLUTE LYMPHOCYTE [2]: 8734 CELLS/uL
- ABSOLUTE MONOCYTE [2]: 98.67 CELLS/uL
- ABSOLUTE SEGMENTED NEUTROPHIL [2]: 1034 CELLS/uL
- BASOPHIL [2]: 0%
- EOSINOPHIL [2]: 0%
- ERYTHROCYTE COUNT [2]: 5.19 x10E6/uL
- HEMATOCRIT [2]: 33.2%
- HEMOGLOBIN [2]: 12.93 G/DL
- LEUKOCYTE COUNT [2]: 9.87 x10E3/uL
- LYMPHOCYTE [2]: 87%
- MEAN CORPUSCULAR HEMOGLOBIN [2]: 25 pg
- MEAN CORPUSCULAR HEMOGLOBIN CONCENTRATION [2]: 39.03 G/DL
- MEAN CORPUSCULAR VOLUME [2]: 63.93 fL
- MONOCYTE [2]: 1%
- NEUTROPHIL [2]: 12%
- NUCLEATED RED BLOOD CELLS [2]: 0 /100WBC
- PLATELET COUNT [2]: 1190 x10E3/uL
- ALANINE AMINOTRANSFERASE [2]: 75.67 u/L
- ALBUMIN [2]: 4 G/DL
- ALKALINE PHOSPHATASE [2]: 384.33 u/L
- ASPARTATE AMINOTRANSFERASE [2]: 89.67 u/L
- BLOOD UREA NITROGEN [2]: 13 mg/dL
- CARBON DIOXIDE [2]: 32.67 mmol/L
- CHLORIDE [2]: 103 MEQ/L
- CHOLESTEROL [2]: 79.67 mg/dL
- CREATINE PHOSPHOKINASE [2]: 199.33 u/L
- CREATININE [2]: 0.29 mg/dL
- GLUCOSE [2]: 161.33 mg/dL
- LACTATE DEHYDROGENASE [2]: 92.33 u/L
- LIPASE [2]: 11.67 u/L
- PHOSPHORUS [2]: 10.8 mg/dL
- POTASSIUM [2]: 5.38 MEQ/L
- SODIUM [2]: 145.3 MEQ/L
- TOTAL BILIRUBIN [2]: 0.17 mg/dL
- TOTAL PROTEIN [2]: 5.7 G/DL
- URIC ACID [2]: 0.63 mg/dL
- ABSOLUTE BASOPHIL [3]: 0 CELLS/uL
- ABSOLUTE EOSINOPHIL [3]: 0 CELLS/uL
- ABSOLUTE LYMPHOCYTE [3]: 6334 CELLS/uL
- ABSOLUTE MONOCYTE [3]: 74.67 CELLS/uL
- ABSOLUTE SEGMENTED NEUTROPHIL [3]: 624.67 CELLS/uL
- BASOPHIL [3]: 0%
- EOSINOPHIL [3]: 0%
- ERYTHROCYTE COUNT [3]: 5.31 x10E6/uL
- HEMATOCRIT [3]: 33.17%
- HEMOGLOBIN [3]: 12.87 G/DL
- LEUKOCYTE COUNT [3]: 7.03 x10E3/uL
- LYMPHOCYTE [3]: 89.67%
- MEAN CORPUSCULAR HEMOGLOBIN [3]: 24.23 pg
- MEAN CORPUSCULAR HEMOGLOBIN CONCENTRATION [3]: 38.8 G/DL
- MEAN CORPUSCULAR VOLUME [3]: 62.43 fL
- MONOCYTE [3]: 1%
- NEUTROPHIL [3]: 9.33%
- NUCLEATED RED BLOOD CELLS [3]: 0 /100WBC
- PLATELET COUNT [3]: 1308 x10E3/uL
- ALANINE AMINOTRANSFERASE [3]: 57.33 u/L
- ALBUMIN [3]: 3.9 G/DL
- ALKALINE PHOSPHATASE [3]: 360 u/L
- ASPARTATE AMINOTRANSFERASE [3]: 80.67 u/L
- BLOOD UREA NITROGEN [3]: 11 mg/dL
- CARBON DIOXIDE [3]: 26.33 mmol/L
- CHLORIDE [3]: 101.33 MEQ/L
- CHOLESTEROL [3]: 77 mg/dL
- CREATINE PHOSPHOKINASE [3]: 434.67 u/L
- CREATININE [3]: 0.12 mg/dL
- GLUCOSE [3]: 184.33 mg/dL
- LACTATE DEHYDROGENASE [3]: 112 u/L
- LIPASE [3]: 10.67 u/L
- PHOSPHORUS [3]: 12.1 mg/dL
- POTASSIUM [3]: 4.86 MEQ/L
- SODIUM [3]: 144.9 MEQ/L
- TOTAL BILIRUBIN [3]: 0.2 mg/dL
- TOTAL PROTEIN [3]: 5.83 G/DL
- URIC ACID [3]: 0.87 mg/dL
